Results on five molecules are retold here after patent US12285393B2, “Roles of modulators of intersectin-Cdc42 signaling in Alzheimer's disease” (priority 2017, dated 2025).

In data set [1] the target is T1, Rac1 (Homo sapiens, UniProt P63000).
T1 construct: purchased Cytoskeleton Inc
Kind of data set: Rho-GEF IC50 assay (GEF/DH domain-mediated mant-GTP binding). It is filed as biochemical. On the procedure:
(§1) Rho-GEF IC50 Assay: Rho-GEF assay (Cytoskeleton Inc., Denver, Colorado, United States of America) was conducted per manufacturer's instructions (λex=360 nm, λem=460 nm). Briefly, a solution (50 μL) of purified Rho GTPase (1 μM) and mant-GTP (1.5 μM) with or without compound (0.001-500 μM) was prepared and the absorbance monitored for 10-30 min to obtain the background/baseline. The addition of purified GEF/DH domain (0.08-0.2 μM) was carried out simultaneously and the absorbance was recorded for 30-45 min. The linear slope following the addition of the GEF was calculated and expressed as percentage of the control and plotted on an IC50 curve.

For data set [2], the target named is T2, RhoA (Homo sapiens, UniProt P61586).
T2 construct: purchased Cytoskeleton Inc
T2 sequence (P61586 whole entry): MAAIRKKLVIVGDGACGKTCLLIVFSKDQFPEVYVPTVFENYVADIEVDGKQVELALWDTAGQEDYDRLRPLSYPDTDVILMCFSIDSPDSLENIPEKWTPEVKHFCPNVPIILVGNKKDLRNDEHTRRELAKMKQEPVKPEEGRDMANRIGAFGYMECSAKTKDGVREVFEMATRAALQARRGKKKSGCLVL
The description is as above. It is filed as biochemical. On the procedure: as §1

Data set [3] has as its system Swiss 3T3 cells. The data set can be described thus: Immunofluorescence, cell morphology and bradykinin-mediated activation. It is filed as cell-based. As for the experimental part: Immunofluorescence: Serum-starved Swiss 3T3 cells were pretreated with compound for 2 h before the addition of bradykinin (100 ng/mL) for 20 min. Cells were fixed in 4% paraformaldehyde for 15 min at RT and stored in PBS. Fixed cells were treated with 0.5% Triton for 30 min at RT, 100 mM Glycine 30 min at RT, and 10% BSA for 30 min at 37° C. Primary antibody for GM130 (1:1000, BD Biosciences, Franklin Lakes, New Jersey, United States of America) was used to probe for 1 h at RT followed by CY3-conjugated secondary antibody (1:1000) for 1 h at RT in the dark. Actin was stained with fluorescein-conjugated phalloidin (1:300). Hoechst (1:2500) was used to stain the nuclei. Coverslips were mounted onto slides using antifade medium from Life Technologies (Carlsbad, California, United States of America). Images were taken with a Zeiss Axiovert S100 microscope (Carl Zeiss; Thornwood, New York, United States of America).

Data set [4] is described as follows: Solubility profile by optical density. It is filed as physicochemical. To be noted: for Ratio (optical density solution/solvent alone) / optical density of solution: RT, 10 minutes. The source says: ZCL278, ZCL279, and ZCL367 were all tested for solubility in the 5 FDA approved solvents to be used in humans. […] Results are shown below in Tables 2-4. Ratio refers to the optical density of the solution comprising the modulator compound/the optical density of the carder/solvent alone.

Data set [5] has as its system C57BL/6 mice. The data set can be described thus: Toxicity experiment, I.P. injection. To be noted: 0.4 mg/g or 0.8 mg/g body weight I.P.; 1 hour or 2 weeks. In kind it is in vivo. On the procedure: ZCL 278 Toxicity Experiment: Individual C57BL/6 mice of 4-6 months of age from Jackson Laboratory (Bar Harbor, Maine, United States of America) were submitted to ZCL278 treatment for 5 minutes, 30 minutes, 2 hours and 24 hours. The dosage of ZCL278 for each mouse was 0.8 mg/g body weight delivered via intraperitoneal (I.P.) injection of a 15 mg/ml solution of ZCL278 was dissolved in the sesame oil (10% DMSO).
ZCL 279 Toxicity Experiment: Individual C57BL/6 mice of 4-6 months of age from Jackson Laboratory (Bar Harbor, Maine, United States of America) were submitted to ZCL279 treatment for 5 minutes, 30 minutes, 2 hours and 24 hours. The dosage of ZCL279 for each mouse was 0.6 mg/g body weight delivered via intraperitoneal (I.P.) injection of a 15 mg/ml solution of ZCL279 was dissolved in the sesame oil (10% DMSO).
ZCL367 Toxicity Experiment: Individual C57BL/6 mice of 4-6 months of age from Jackson Laboratory (Bar Harbor, Maine, United States of America) were submitted to ZCL367 treatment for 1 hour or 2 weeks. The dosage of ZCL367 for each time period was 0.4 mg/g body weight or 0.8 mg/g body weight, delivered via I.P. injection. […] Mice were sacrificed after end of 1 hour or 2 weeks.

In data set [6] the test system is mice. Kind of data set: Long-term survival after one injection. It is filed as in vivo. As for the experimental part:
Long-term Survival. Groups of 10 mice were treated with one injection of ZCL278 (up to 0.8 mg/g), ZCL279 (up to 0.6 mg/g), or ZCL367 (up to 1.6 mg/g) to examine potential lethal dosage (the maximal dosage tested when no mice died). […] Durations longer than 3 months have not been tested. As a reference, working dosage for the behavioral assessment described below used 20 ug/g for injection, […] than the highest dosage of 0.8 mg/g tested in the long-term survival experiment.

Data set [7] deals with T3, Cdc42 (Homo sapiens, UniProt P60953). The data set can be described thus: Rho-GEF IC50 assay (GEF/DH domain-mediated mant-GTP binding). It is filed as biochemical. Set-up: purchased Cytoskeleton Inc. To be noted: read-out: IC50, GEF/DH domain-mediated mant-GTP binding/Cdc42 activation. As for the experimental part: as §1
T3 sequence (P60953 whole entry, the tested form may be a part): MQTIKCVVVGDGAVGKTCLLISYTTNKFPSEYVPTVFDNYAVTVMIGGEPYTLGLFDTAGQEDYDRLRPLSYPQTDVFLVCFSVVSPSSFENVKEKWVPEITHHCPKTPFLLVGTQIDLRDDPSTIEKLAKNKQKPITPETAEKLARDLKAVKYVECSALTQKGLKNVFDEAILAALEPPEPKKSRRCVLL
Data set [8] deals with T3, Cdc42. Kind of data set: mant-GTP binding to Cdc42 with or without GEF/DH domain. In kind it is biochemical. Details: purchased Cytoskeleton Inc. To be noted: 5-500 μM. As for the experimental part: (§2) Cdc42 (1 μM) was incubated with mant-GTP (1.5 μM) and varying concentrations of ZCL278, ZCL279, or ZCL367 (5-500 μM). Fluorescent readings were taken every minute for 10 m to acquire the baseline. The GEF/DH domain (0.08-0.2 μM) was added followed by readings taken every minute for another 30 m. The linear phase was calculated from within the time period of 12-22 m. Cdc42 (1 μM) was incubated with mant-GTP (1.5 μM) and varying concentrations of ZCL278, ZCL279, or ZCL367 (5-500 μM). Fluorescent readings were taken every minute for 30 m to monitor the binding of mant-GTP in the absence of GEF/DH domain.

In data set [9] the target is T3, Cdc42. The data set can be described thus: Cdc42-GEF-assay, additional compound screening. It is filed as biochemical. To be noted: for % ZCL367 (inhibitor activity): percentages of ZCL367 normalized to batch, less than 100% = more potent inhibitor; for % ZCL278 (activator activity): percentages of ZCL278 activity normalized to batch, more than 100% = more potent activator, Table 9; for % ZCL278 (with GEF): assay slope relative to ZCL278, normalized to batch; for % ZCL278 (without GEF): baseline slope relative to ZCL278, normalized to batch. Details: purchased Cytoskeleton Inc. On the procedure: as §1, §2
Cdc42-GEF-assays were conducted on additional screening compounds in batches of 9 compounds per batch as described above in Example 2 using ZCL278 and ZCL367 as standards. Screening compounds were taken from the Specs Chemistry Database of 197,000 compounds for small molecule or the National Cancer Institute Compound Library. […] These compounds promote Cdc42-mantGTP binding without GEF. It is possible that these compounds can inhibit Cdc42-mantGTP binding with GEF. […] These compounds appear to have activity like ZCL279. […] However, upon the addition of GEF, the compounds appear to facilitate the binding of mantGTP to Cdc42 (high assay slope, relative to ZCL278)

Where [10] appears, read: Polyethylene Glycol300 (PEG-300), 30%.

pIC50: −log10 of the molar value.

For `O=C(N/N=C/c1ccccc1O)c1cc(O)cc(O)c1` [ZCL367, (E)-3,5-dihydroxy-N′-(2-hydroxybenzylidene)benzohydrazide], the results for the pIC50 in [1], in [2] and in [7] were 6.72, 4.53 and 7.01, respectively. The bradykinin-mediated activation result in [3] (Swiss 3T3 cells, bradykinin 100 ng/mL) is on record as “inhibit bradykinin-mediated activation”. Further, the “changes to cell morphology” value in data set [3] (after 4 h of treatment, more drastic after six hours) is “no effects on cell morphology”. For the same molecule, the “Ratio (optical density solution/solvent alone)” value in data set [4] (1,2-Propanediol, 40%) was determined as 2.667; in [4] (Dimethyl Sulfoxide (DMSO)), 1.048; in data set [4] (Pluronic F-68, 10%), 2.026; in [4] (setting [10]), 2.333; in [4] (Sesame Oil) it was 2.636; in data set [4] (Sterile Water) it was 5.211. Also, the “Ratio (optical density solution/solvent alone)” value is 3.579 in data set [4] (Tween-80, 0.4%) and 2.974 in [4] (dPBS). Moreover, the “optical density of solution” value in [4] (1,2-Propanediol, 40%) was found to be 0.104; in data set [4] (Dimethyl Sulfoxide (DMSO)), 0.044; in data set [4] (Pluronic F-68, 10%) it was 0.079; in [4] (setting [10]) it was 0.091; in data set [4] (Sesame Oil), 0.116; in data set [4] (Sterile Water), 0.198. The “optical density of solution” value in data set [4] (Tween-80, 0.4%) stood at 0.136; in data set [4] (dPBS), 0.113. In addition, the solubility result in data set [4] (in DM19) is reported as “completely soluble”. Besides, the “gross anatomic toxicity (liver, kidney, spleen)” value in [5] was “no gross anatomic toxicity”. Besides, the “Lethal Dosage” value in data set [6] (mouse, in vivo) was 0.8 mg/g. The “Longest Dosing Duration” value in [6] (mouse, in vivo) was found to be 2 months. The “deaths in long-term survival” value in [6] (one injection, 1.6 mg/g, in 1 month) is “one (day 20) out of four mice died”. Also, the “effect on Cdc42 (mant-GTP binding)” value in data set [8] (in the absence of GEF domain) is listed as “has no effect”; in [8] (in the presence of GEF domain) it was “acts as an inhibitor”. In addition, the “% ZCL367 (inhibitor activity)” value in [9] is 100%.
On to `NC(=O)CCN(Cc1ccccc1)C(=O)Nc1cccc(OC2CCCC2)c1` [ZCL1139], for which, in data set [9], the “% ZCL278 (activator activity)” value was 100.29% and the “% ZCL367 (inhibitor activity)” value was determined as 88.55%.
As for `O=C(c1ccccc1O)N1CCOc2c(O)cc(-c3nc4ccccc4s3)cc2C1` [ZCL1142], in [9], the “% ZCL278 (with GEF)” value came out at 98.499% and the “% ZCL278 (without GEF)” value was 69.001%.
The like results for `c1ccc(-c2nc3c(c(NCc4cn5ccsc5n4)n2)CCNC3)cc1` [ZCL1143] were, in that order, 96.811% and 45.056%.
As for `c1ccc(-c2nc3c(c(NCc4cn5ccsc5n4)n2)CCNC3)cc1` [ZCL1144], the “% ZCL278 (activator activity)” value in data set [9] was 454.3%.
